The experiment concerns the target glucocorticoid receptor (Homo sapiens (Human), UniProt P04150). Briefly: HepG2 TAT assay: inhibition of dexamethasone-induced tyrosine aminotransferase (TAT) activity. The format is cell-based. Conditions: HepG2 cells, challenge of 100 nM dexamethasone, 18-24 hr; IC50 converted to Ki by Cheng and Prusoff equation. In a few lines: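 Cells lysed 15 min at 4 °C; TAT enzyme reaction 2 h at 37 °C, stopped with KOH, 30 min further at 37 °C. Inhibition fitted to 4-parameter logistic.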

Each structure is given as a SMILES string.

Broadly, the Ki is a measure of affinity in units of concentration, obtained from inhibition or displacement. A lower Ki goes with a stronger hold on the target.

Sequence of glucocorticoid receptor (P04150 whole entry): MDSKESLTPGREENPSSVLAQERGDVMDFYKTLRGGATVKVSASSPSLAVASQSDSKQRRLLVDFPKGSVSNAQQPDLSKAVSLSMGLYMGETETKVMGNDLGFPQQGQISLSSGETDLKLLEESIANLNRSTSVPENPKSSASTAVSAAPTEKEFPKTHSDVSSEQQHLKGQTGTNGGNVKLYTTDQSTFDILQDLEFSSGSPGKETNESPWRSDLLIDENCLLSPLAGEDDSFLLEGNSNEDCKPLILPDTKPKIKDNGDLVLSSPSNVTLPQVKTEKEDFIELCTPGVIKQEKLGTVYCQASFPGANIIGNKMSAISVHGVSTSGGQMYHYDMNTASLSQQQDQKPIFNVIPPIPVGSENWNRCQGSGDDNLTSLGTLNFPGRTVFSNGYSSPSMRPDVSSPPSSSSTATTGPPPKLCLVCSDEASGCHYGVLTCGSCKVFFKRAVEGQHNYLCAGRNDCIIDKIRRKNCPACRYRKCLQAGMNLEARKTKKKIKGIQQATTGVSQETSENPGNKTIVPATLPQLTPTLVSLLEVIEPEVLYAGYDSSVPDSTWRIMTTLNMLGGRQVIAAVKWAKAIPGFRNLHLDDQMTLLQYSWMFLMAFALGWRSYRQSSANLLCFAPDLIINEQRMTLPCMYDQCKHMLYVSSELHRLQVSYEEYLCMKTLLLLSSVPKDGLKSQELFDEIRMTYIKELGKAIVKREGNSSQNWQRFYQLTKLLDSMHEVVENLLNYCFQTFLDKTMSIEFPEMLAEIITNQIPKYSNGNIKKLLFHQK

In turn, `Cc1cc2c(cnn2-c2ccc(F)cc2)cc1C12CN(S(C)(=O)=O)CC1CC(O)(c1ccccc1)C2` (stereo not shown) [Example 9] came in with a Ki of 130 nM.

`Cc1cc2c(cnn2-c2ccc(F)cc2)cc1[C@@]12CN(C(=O)c3cnn(C)n3)C[C@@H]1[C@H]2c1ccccc1` (single isomer, unassigned) [Example 127, (1-(1-(4-fluorophenyl)-6-methyl-1H-indazol-5-yl)-6-phenyl-3-azabicyclo[3.1.0]hexan-3-yl)(2-methyl-2H-1,2,3-triazol-4-yl)methanone]: the Ki was found to be 19 nM.

Consider `CO[C@@]1(c2ccccc2)C[C@H]2CN(S(=O)(=O)C3CC3)C[C@@]2(c2cc3cnn(-c4ccc(F)cc4)c3cc2C)C1` [Example 24], for which the inhibition constant (Ki) turned out to be 32 nM.

`COC1(c2ccccc2)CC2CN(S(=O)(=O)C(C)C)CC2(c2cc3cnn(-c4ccc(F)cc4)c3cc2C)C1` (stereo not shown) [Example 30] came in with an inhibition constant (Ki) of 32 nM.

As to `COC1(c2cccc(C)c2)CC2CN(S(=O)(=O)c3cnn(C)c3)CC2(c2cc3cnn(-c4ccc(F)cc4)c3cc2C)C1` (stereo not shown) [Example 14], the Ki is 110 nM.

`Cc1cc2c(cnn2-c2ccc(F)cc2)cc1[C@@]12CN(S(C)(=O)=O)C[C@@H]1[C@H]2C(=O)Nc1ccc(F)cn1` [Example 67]: the inhibition constant Ki stood at 84 nM.

Compound `Cc1cc2c(cnn2-c2ccc(F)cc2)cc1C12CN(C(=O)OC(C)(C)C)CC1CC(O)(c1ccccc1)C2` (stereo not shown) [Example 17, tert-butyl 3a-(1-(4-fluorophenyl)-6-methyl-1H-indazol-5-yl)-5-hydroxy-5-phenylhexahydrocyclopenta[c]pyrrole-2(1H)-carboxylate] gave an inhibitory constant (Ki) of 42 nM.

As to `Cc1cc2c(cnn2-c2ccc(F)cc2)cc1C12CC(Oc3ccccc3)CC1CN(S(C)(=O)=O)C2` (stereo not shown) [Example 36, 1-(4-fluorophenyl)-6-methyl-5-(2-(methylsulfonyl)-5-phenoxyhexahydrocyclopenta[c]pyrrol-3a(1H)-yl)-1H-indazole], the Ki worked out at 72 nM.

For the compound `Cc1cc2c(cnn2-c2ccc(F)cc2)cc1[C@@]12CN(S(=O)(=O)c3ccn(C)n3)C[C@@H]1[C@H]2c1ccccc1` (single isomer, unassigned) [Example 76], the affinity, expressed as Ki, was 9.4 nM.

With `Cc1cc2c(cnn2-c2ccc(F)cc2)cc1C12CC(=O)CC1CN(C(=O)OC(C)(C)C)C2` (stereo not shown) [Example 1, tert-butyl 3a-(1-(4-fluorophenyl)-6-methyl-1H-indazol-5-yl)-5-oxohexahydrocyclopenta[c]pyrrole-2(1H)-carboxylate], the Ki was found to be 370 nM.

`Cc1cc2c(cnn2-c2ccc(F)cc2)cc1[C@@]12CN(C(=O)c3ccccc3)C[C@@H]1[C@]2(C)c1ccccc1` (stereo in doubt) [Example 182, (1-(1-(4-fluorophenyl)-6-methyl-1H-indazol-5-yl)-6-methyl-6-phenyl-3-azabicyclo[3.1.0]hexan-3-yl)(phenyl)methanone] showed an inhibitory constant (Ki) of 180 nM.

With `Cc1cc2c(cnn2-c2ccc(F)cc2)cc1C12CC(c3ccccc3)CC1CN(S(C)(=O)=O)C2` (stereo not shown) [Example 46, 1-(4-fluorophenyl)-6-methyl-5-(2-(methylsulfonyl)-5-phenylhexahydrocyclopenta[c]pyrrol-3a(1H)-yl)-1H-indazole], the inhibition constant Ki came out at 87 nM.

As for `Cc1noc([C@@H]2[C@H]3CN(S(=O)(=O)c4cnn(C)n4)C[C@]32c2cc3cnn(-c4ccc(F)cc4)c3cc2C)n1` (stereo in doubt) [Example 131, 5-(1-(1-(4-fluorophenyl)-6-methyl-1H-indazol-5-yl)-3-((2-methyl-2H-1,2,3-triazol-4-yl)sulfonyl)-3-azabicyclo[3.1.0]hexan-6-yl)-3-methyl-1,2,4-oxadiazole], the affinity, expressed as Ki, was 240 nM.

As for `Cc1cc2c(cnn2-c2ccc(F)cc2)cc1[C@@]12CN(C(=O)c3ncccc3F)C[C@@H]1[C@H]2c1ccccc1` (stereo in doubt) [Example 156, (1-(1-(4-fluorophenyl)-6-methyl-1H-indazol-5-yl)-6-phenyl-3-azabicyclo[3.1.0]hexan-3-yl)(3-fluoropyridin-2-yl)methanone], the affinity corresponds to a Ki of 20 nM.

As for `CCOC1(c2ccccc2)CC2CN(S(=O)(=O)c3cnn(C)c3)CC2(c2cc3cnn(-c4ccc(F)cc4)c3cc2C)C1` (stereo not shown) [Example 12], the affinity corresponds to a Ki of 170 nM.

Consider `Cc1cc2c(cnn2-c2ccc(F)cc2)cc1[C@]12CN(S(=O)(=O)CC3CC3)C[C@H]1[C@@H]2c1ccccc1` [Example 93], for which the affinity corresponds to a Ki of 29 nM.

With `Cc1cc2c(cnn2-c2ccc(F)cc2)cc1[C@@]12CN(Cc3ccccn3)C[C@@H]1[C@H]2c1ccccc1` (stereo in doubt) [Example 179, 1-(4-fluorophenyl)-6-methyl-5-(6-phenyl-3-(pyridin-2-ylmethyl)-3-azabicyclo[3.1.0]hexan-1-yl)-1H-indazole], the inhibitory constant (Ki) came to 48 nM.

In turn, `Cc1cc2c(cnn2-c2ccc(F)cc2)cc1[C@]12CN(S(=O)(=O)c3cnn(C)n3)C[C@H]1[C@@H]2C(=O)N(C)c1ccccc1` [Example 64] displayed an inhibition constant (Ki) of 130 nM.

On to `Cc1cc2c(cnn2-c2ccc(F)cc2)cc1C12CN(S(=O)(=O)c3cnn(C)c3)CC1CC(O)(c1nccs1)C2` (stereo not shown) [Example 2, 3a-(1-(4-fluorophenyl)-6-methyl-1H-indazol-5-yl)-2-((1-methyl-1H-pyrazol-4-yl)sulfonyl)-5-(thiazol-2-yl)octahydrocyclopenta[c]pyrrol-5-ol], for which affinity was put at a Ki of 490 nM.

Turning to `Cc1cc2c(cnn2-c2ccc(F)cc2)cc1[C@@]12CN(S(=O)(=O)c3cnn(C)n3)C[C@@H]1[C@H]2c1ccccc1` [Example 71], the Ki was 15 nM.

Take `CCS(=O)(=O)N1C[C@@H]2[C@@H](c3ccccc3)[C@]2(c2cc3cnn(-c4ccc(F)cc4)c3cc2C)C1` [Example 94]: the affinity, expressed as Ki, was 31 nM.

Regarding `COC1(c2nccs2)CC2CN(S(=O)(=O)c3cnn(C)c3)CC2(c2cc3cnn(-c4ccc(F)cc4)c3cc2C)C1` (stereo not shown) [Example 3, 2-(3a-(1-(4-fluorophenyl)-6-methyl-1H-indazol-5-yl)-5-methoxy-2-((1-methyl-1H-pyrazol-4-yl)sulfonyl)octahydrocyclopenta[c]pyrrol-5-yl)thiazole], the inhibition constant (Ki) amounted to 290 nM.

`CCn1ccc(S(=O)(=O)N2C[C@@H]3[C@@H](c4ccccc4)[C@]3(c3cc4cnn(-c5ccc(F)cc5)c4cc3C)C2)n1` [Example 92] registered an inhibition constant Ki of 9.5 nM.

With `CO[C@@]1(c2ccccc2)C[C@@H]2CN(S(=O)(=O)c3cnn(C)c3)C[C@]2(c2cc3cnn(-c4ccc(F)cc4)c3cc2C)C1` [Example 7, 1-(4-fluorophenyl)-5-((3aR,5S,6aS)-5-methoxy-2-((1-methyl-1H-pyrazol-4-yl)sulfonyl)-5-phenylhexahydrocyclopenta[c]pyrrol-3a(1H)-yl)-6-methyl-1H-indazole], the affinity, expressed as Ki, was 350 nM.

For the compound `Cc1cc2c(cnn2-c2ccc(F)cc2)cc1[C@@]12CN(C(=O)OC3CCOCC3)C[C@@H]1[C@H]2c1ccccc1` (single isomer, unassigned) [Example 125, tetrahydro-2H-pyran-4-yl 1-(1-(4-fluorophenyl)-6-methyl-1H-indazol-5-yl)-6-phenyl-3-azabicyclo[3.1.0]hexane-3-carboxylate], the Ki worked out at 29 nM.

The compound `Cc1cc2c(cnn2-c2ccc(F)cc2)cc1[C@@]12CN(C(=O)c3ccccc3)C[C@@H]1[C@H]2c1cccnc1` (stereo in doubt) [Example 173, (1-(1-(4-fluorophenyl)-6-methyl-1H-indazol-5-yl)-6-(pyridin-3-yl)-3-azabicyclo[3.1.0]hexan-3-yl)(phenyl)methanone] showed a Ki of 130 nM.

For `Cc1cc2c(cnn2-c2ccc(F)cc2)cc1[C@@]12CN(C(=O)c3ccccc3)C[C@@H]1[C@H]2CN1CCOCC1` (stereo in doubt) [Example 180, (1-(1-(4-fluorophenyl)-6-methyl-1H-indazol-5-yl)-6-(morpholinomethyl)-3-azabicyclo[3.1.0]hexan-3-yl)(phenyl)methanone], affinity was put at a Ki of 600 nM.

In the case of `COC1(c2ccccc2)CC2CN(S(=O)(=O)c3ccn(C)n3)CC2(c2cc3cnn(-c4ccc(F)cc4)c3cc2C)C1` (stereo not shown) [Example 31], affinity was put at a Ki of 130 nM.

As to `Cc1cc2c(cnn2-c2ccc(F)cc2)cc1[C@@]12CN(C(=O)c3ncccc3C)C[C@@H]1[C@H]2c1ccccc1` (stereo in doubt) [Example 162, (1-(1-(4-fluorophenyl)-6-methyl-1H-indazol-5-yl)-6-phenyl-3-azabicyclo[3.1.0]hexan-3-yl)(3-methylpyridin-2-yl)methanone], the affinity, expressed as Ki, was 29 nM.

Turning to `COC1(c2ccccc2)CC2CN(C(=O)OC(C)(C)C)CC2(c2cc3cnn(-c4ccc(F)cc4)c3cc2C)C1` (stereo not shown) [Example 18, tert-butyl 3a-(1-(4-fluorophenyl)-6-methyl-1H-indazol-5-yl)-5-methoxy-5-phenylhexahydrocyclopenta[c]pyrrole-2(1H)-carboxylate], the inhibition constant Ki is 44 nM.

For `Cc1cc2c(cnn2-c2ccc(F)cc2)cc1[C@@]12CN(C(=O)c3ccc(C#N)cn3)C[C@@H]1[C@H]2c1ccccc1` (single isomer, unassigned) [Example 163, 6-(1-(1-(4-fluorophenyl)-6-methyl-1H-indazol-5-yl)-6-phenyl-3-azabicyclo[3.1.0]hexane-3-carbonyl)nicotinonitrile], affinity was put at a Ki of 19 nM.

`CO[C@]1(c2ccccc2)C[C@@H]2CN(S(=O)(=O)c3cncc(F)c3)C[C@]2(c2cc3cnn(-c4ccc(F)cc4)c3cc2C)C1` [Example 25] had an inhibition constant (Ki) of 52 nM.

`CCCn1ncc(S(=O)(=O)N2C[C@H]3[C@H](c4ccccc4)[C@@]3(c3cc4cnn(-c5ccc(F)cc5)c4cc3C)C2)n1` [Example 75]: the Ki is 25 nM.

Compound `Cc1cc2c(cnn2-c2ccc(F)cc2)cc1[C@@]12CN(S(=O)(=O)c3cnn(C)n3)C[C@@H]1[C@H]2C(=O)N1CCCC1` (stereo in doubt) [Example 55, (1-(1-(4-fluorophenyl)-6-methyl-1H-indazol-5-yl)-3-((2-methyl-2H-1,2,3-triazol-4-yl)sulfonyl)-3-azabicyclo[3.1.0]hexan-6-yl)(pyrrolidin-1-yl)methanone] displayed an inhibitory constant (Ki) of 300 nM.

Values taken from patent US20250115583A1, “BICYCLIC INDAZOLE GLUCOCORTICOID RECEPTOR ANTAGONISTS” (Corcept Therapeutics Incorporated, priority 2021, published 2025).
